Laboratory results published in patent US20240024350A1, “ANTI-CANCER COMPOSITION CONTAINING AURANOFIN AND MERCAPTO COMPOUND AND USE THEREOF” (SUN YAT-SEN UNIVERSITY, priority 2020, published 2024).

What was measured:
[1] = test system: HCT116 human colon cancer cells; test: MTT colorimetric proliferation / cell survival assay, HCT116; details: for Cell survival rate (%): compound alone, others not given; for Cell survival rate (%) / Cell survival rate after addition of 10 μM auranofin (%): with 30% FBS, 50 μM for TGTA, β-mercaptoethanol, mercaptoethylamine, DEDT; for Cell survival rate after addition of 10 μM auranofin (%): compound plus 10 μM auranofin, listed as Auranofin = auranofin alone
[2] = test system: HepG-2 human liver cancer cells; test: MTT colorimetric proliferation / cell survival assay, HepG-2; type: cell-based; details: Liver cancer; TGTA 50 μM
Experimental: (§1) A flask with the cancer cells required for the experiment, with an original culture solution discarded, was washed for three times with 2 mL of PBS, 1 mL of pancreatin was added for digestion for 30 s, and 2 mL of a medium was added to terminate the digestion. The cells were transferred to a centrifuge tube and centrifuged at 1000 rpm for 3 min, the supernatant was discarded, and 2 mL of a medium was added and blew 10 times to be mixed uniformly. 10 μL of a cell suspension was taken for cell counting, and spread on a 96-well plate, with 5000 cells per well and 3 duplications for each compound, and then the number of cells and cell wells was calculated. The amount of required cell suspension and the number of cells for medium dilution were calculated by cell counting. 100 μL of medium was plated with 5000 cells per well, pipetted and mixed uniformly, and the cells were inoculated using a volley, placed in an incubator for culture, and marked.
(§2) (2) The cells cultured in step (1) was taken, and discarded with the original medium. Auranofin mother liquor was diluted to a diluent with final concentrations of 0, 0.78125, 1.5625, 3.125, 6.25, 12.5, 25, 50 and 100 μM, and mixed uniformly. A volley (using 3 wells) was used to draw 100 μL of dilution per well, a 96-well plate was tilted, diluents with each concentration were added in sequence to the corresponding 3 marked wells carefully to prevent poking the cells, blown and sucked about 3 times to be mixed uniformly, marked, shaken for 3 times, and put into a CO2 incubator for culture. The above steps were repeated for each auranofin diluent.
(§3) After auranofin was added for culture for 1 hour, the mother liquor of the mercapto compound was diluted into […] and mixed uniformly. A volley (using 3 wells) was used to suck 20 μL of diluent per well, the 96-well plate was tilted, the diluents of different mercapto compounds were added in sequence to the corresponding 3 marked wells carefully to prevent poking the cells, blown and sucked about 3 times to be mixed uniformly, and put back to the incubator to continue culture.
(§4) After different mercapto compounds were added to cells for 24 h, 20 μL of MTT (with a concentration of 5 mg/mL in PBS) per well was added to the 96-well plate by a volley; and incubation was carried out at 37° C. for 4 h. At the end of incubation, the MTT mixture was sucked out, and DMSO was added at 130 μL/well using a volley.
(§5) According to the results of Table 1-2, the killing effect of auranofin in combination with various compounds (with 30% FBS) on HCT116 human colon cancer cells and the killing effect of the auranofin-TGTA (50 μM) in combination with other cancer cells (lung cancer, colon cancer, breast cancer, liver cancer, cervical cancer and gastric cancer cells) were further detected by using the same method as the above.

[3] = test system: A549 human lung cancer cells; test: MTT colorimetric proliferation / cell survival assay, A549; type: cell-based; details: Lung cancer; TGTA 50 μM
Experimental: as §1, §2, §3, §4, §5

[4] = test system: MCF-7 human breast cell cancer cells; test: MTT colorimetric proliferation / cell survival assay, MCF-7; type: cell-based; details: breast cancer; TGTA 50 μM
Experimental: as §1, §2, §3, §4, §5

[5] = test system: PC9 human lung cancer cells; test: MTT cell survival assay, PC9; type: cell-based; details: TGTA 50 μM
Experimental: as §1, with “marked. […]” for “marked.”
as §5

PCGR lung cancer cells = test: MTT cell survival assay, PCGR; type: cell-based; details: TGTA 50 μM
Experimental: as §1, with “marked. […]” for “marked.”
as §5

[6] = test system: Hela human cervical cancer cells; test: MTT cell survival assay, Hela; type: cell-based; details: TGTA 50 μM
Experimental: as §1, with “marked. […]” for “marked.”
as §5

[7] = test system: MGC803 human gastric cancer cells; test: MTT cell survival assay, MGC803; type: cell-based; details: TGTA 50 μM
Experimental: as §1, with “marked. […]” for “marked.”
as §5

TrxR = test: Intracellular TrxR activity in HepG2 cells (DTNB reduction); type: cell-based, human; details: mercapto compound alone 200 μM, 30% FBS
Experimental: HepG2 cells were used as a test subject.
The cells were inoculated into a 6-well plate at 2×10^5 cell/well and incubated for 24 h.
After the incubation, the cell culture medium was replaced with 30% FBS to simulate the high concentration mercapto environment under the normal physiological condition, and used as a control (without adding any reagents). The experimental group was added with 0.5 μM of auranofin for incubation at 37° C. for 30 min, and then added with the mercapto compound (DEDT, β-mercaptoethanol or mercaptoethylamine) for incubation for 30 min (final concentration of DMSO in the system was ≤1%). The incubated cells were washed for 3 times with PBS, added with 100 μL of icy lysis buffer (containing 50 mM of phosphate buffer with pH 7.4, 1 mM EDTA, and 0.10% Triton-X 100), and then lysed on ice for 5 min to collect the cell lysate.
100 μL of buffer (containing 50 mM of potassium phosphate with pH 7.4, 1 mM EDTA, and 0.2 mM NADPH) was added to the collected cell lysate (10 μg protein), 5,5′-dithiobis (2-nitrobenzoic acid) (DTNB, with a final concentration of 3 mM) was added to initiate a reaction, and the activity of TrxR was obtained on the basis of the increased OD value in 10 minutes (OD detection wavelength was 410 nm). Auranofin alone was the positive control sample, and the blank group was the negative control.

| SMILES | Cell survival rate (%) [1] | Cell survival rate after addition of 10 μM auranofin (%) [1] | Activity of TrxR (TrxR) | other results |
| --- | --- | --- | --- | --- |
| CCCc1cc(=O)[nH]c(=S)[nH]1 [Propylthiouracil] | 101 ± 6% | 76 ± 9% | – | – |
| [Na+].[Na+].[Na+].[O-]P([O-])([O-])=S [Sodium thiophosphate hydrate] | 99 ± 8% | 79 ± 4% | – | – |
| CC(=O)OC[C@H]1O[C@@H](S)[C@H](OC(C)=O)[C@@H](OC(C)=O)[C@@H]1OC(C)=O [TGTA, 1-thio-β-D-glucose tetraacetate] | 97 ± 5% | 18 ± 2% | – | Cell survival rate (%) HepG2 [2]: 104 ± 4%; Cell survival rate (%) A549 [3]: 104 ± 6%; Cell survival rate (%) MCF-7 [4]: 99 ± 3%; Cell survival rate (%) PC9 [5]: 104 ± 2%; Cell survival rate (%) PCGR (PCGR lung cancer cells): 101 ± 3%; Cell survival rate (%) Hela [6]: 87 ± 6%; Cell survival rate (%) MGC803 [7]: 104 ± 9%; Cell survival rate (%) HCT116 ([1]; colon cancer, TGTA 50 μM): 97 ± 5% |
| NCCS [mercaptoethylamine, mercaptoethanamine] | 105 ± 7% | 85 ± 3% | 118.2% | – |
| O=S([O-])([O-])=S.[Na+].[Na+] [sodium thiosulfate] | 105 ± 5% | 84 ± 8% | – | – |
| OCCS [β-mercaptoethanol] | 96 ± 15% | 55 ± 4% | 127.3% | – |
